Test results as given in patent publication US20070021360A1, “Compositions, formulations and kit with anti-sense oligonucleotide and anti-inflammatory steroid and/or obiquinone for treatment of respiratory and lung disesase” (priority 2001, published 2007).

Tests used:
B2 bradykinin receptor = molecular target: T1, B2 bradykinin receptor (Oryctolagus cuniculus, UniProt Q28642); test: Bradykinin B2 receptor binding ([3H]NPC 17731) in airway smooth muscle membranes of treated rabbits; set-up: species or system rabbit; details: for B2 receptor Bmax: [3H]NPC 17731
T1 construct: Tissue from airway smooth muscle was dissected to primary, secondary and tertiary bronchi from rabbits; from tissue; host or cells: rabbit airway smooth muscle membranes
T1 sequence (Q28642 1-367): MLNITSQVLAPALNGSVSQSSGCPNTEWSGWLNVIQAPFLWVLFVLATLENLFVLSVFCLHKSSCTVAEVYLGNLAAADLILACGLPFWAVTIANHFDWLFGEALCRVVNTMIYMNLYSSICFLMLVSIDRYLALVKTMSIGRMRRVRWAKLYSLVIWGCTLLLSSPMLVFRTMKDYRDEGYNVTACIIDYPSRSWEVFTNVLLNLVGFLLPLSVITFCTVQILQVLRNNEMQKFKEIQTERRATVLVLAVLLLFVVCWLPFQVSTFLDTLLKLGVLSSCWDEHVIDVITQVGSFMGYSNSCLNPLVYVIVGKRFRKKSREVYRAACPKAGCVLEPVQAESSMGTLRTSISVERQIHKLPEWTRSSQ
Method: A membrane fraction was prepared according to the method of Ali et al. (Ali, S., et al., Am. J. Resp. Crit Care Med. 149: 908 (1994), the relevant section relating to the preparation of the membrane fraction is incorporated in its entirety hereby by reference). The protein content was determined by the method of Bradford and plasma membranes were incubated with 0.2 U/ml adenosine deaminase for 30 minutes at 37 EC to remove endogenous adenosine. See, Bradford, M. M. Anal. Biochem. 72, 240-254 (1976), the relevant portion of which is hereby incorporated in its entirety by reference. The binding of [^3H]DPCPX, [^3H]NPC17731, or [^3H]CGS-21680 was measured as described by Jarvis et al. See, Jarvis, M. F., et al., Pharmacol. Exptl. Ther. 251, 888-893 (1989), the relevant portion of which is fully incorporated herein by reference.

adenosine A2 receptors = test: Adenosine A2 receptor binding ([3H]CGS-21680) in airway smooth muscle membranes of treated rabbits; set-up: species or system rabbit; details: airway smooth muscle membranes after cross-over experiment; mean (n = 8) ± SEM
Excerpt: At the conclusion of the cross-over experiment of Example 3 above, airway smooth muscle from all rabbits was quantitatively analyzed for adenosine A1 receptor number. As a control for the specificity of the anti-sense oligonucleotide, adenosine A2 receptors, which should not have been affected, were also quantified. Airway smooth muscle tissue was dissected from each rabbit and a membrane fraction prepared according to the method of Kleinstein et al. (Kleinstein, J. and Glossrnann, H., Naunyn-Schrniedeberg's Arch Pharmacol. 305: 191-200 (1978)), the relevant portion of which is hereby incorporated in its entirety by reference, with slight modifications. Crude plasma membrane preparations were stored at −70 EC until the time of assay. Protein content was determined by the method of Bradford (M. Bradford, Anal. Biochem. 72, 240-254 (1976), the relevant portion of which is hereby incorporated in its entirety by reference). Frozen plasma membranes were thawed at room temperature and were incubated with 0.2 U/ml adenosine deaminase for 30 minutes at 37 EC to remove endogenous adenosine. The binding of [^3H] […] CGS-21680 ([…]) was measured as previously described by Ali et al. (Ali, S. et al., J. Pharmacol. Exp. Ther. 268, Ara. J. Physiol 266, L271-277 (1994), the relevant portion of which is hereby incorporated in its entirety by reference). […]

5′-GTAGCAGGCGGGGATGGGGGC-3′ [HAdA1MM1, reference compound]
Kd (B2 bradykinin receptor; Kd of [3H]NPC 17731 in membranes of rabbits treated with 2 mg oligo): 0.38 ± 0.028 nM | Kd (B2 bradykinin receptor; Kd of [3H]NPC 17731 in membranes of rabbits treated with 20 mg oligo): 0.35 ± 0.024 nM | B2 receptor Bmax (B2 bradykinin receptor; rabbits treated with 2 mg oligo): 14.6 ± 1.02 fmol | B2 receptor Bmax (B2 bradykinin receptor; rabbits treated with 20 mg oligo): 14.0 ± 1.0 fmol | A2-Specific Binding (adenosine A2 receptors): 302 ± 22
